Experimental findings from publication PMC6199744, “Development of Chemical Proteomics for the Folateome and Analysis of the Kinetoplastid Folateome” (ACS Infectious Diseases, 2018) are described below.

Where two headings read alike, the source gives them in different places.

Common to all, as to format: binding
For experiment [1], the target named is T1, HeLa cell extract proteins (Homo sapiens, UniProt Q13510).
T1 construct: endogenous in cells; host or cells: HeLa cell extract
T1 sequence (Q13510 22-395): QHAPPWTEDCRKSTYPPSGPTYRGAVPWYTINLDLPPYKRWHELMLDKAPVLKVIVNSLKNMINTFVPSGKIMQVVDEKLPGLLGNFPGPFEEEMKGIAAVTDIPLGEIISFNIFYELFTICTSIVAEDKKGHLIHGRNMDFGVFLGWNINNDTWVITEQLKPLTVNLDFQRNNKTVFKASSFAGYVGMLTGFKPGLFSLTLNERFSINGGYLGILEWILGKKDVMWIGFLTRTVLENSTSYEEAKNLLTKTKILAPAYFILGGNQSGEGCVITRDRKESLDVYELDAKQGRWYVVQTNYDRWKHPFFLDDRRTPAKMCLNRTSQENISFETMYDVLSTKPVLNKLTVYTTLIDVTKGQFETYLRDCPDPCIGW
To be noted: HeLa; protein ASAH1.

In experiment [2] the target is T2, HeLa cell extract proteins (Homo sapiens, UniProt Q9H7Z7).
T2 construct: endogenous in cells; host or cells: HeLa cell extract
T2 sequence (Q9H7Z7 whole entry): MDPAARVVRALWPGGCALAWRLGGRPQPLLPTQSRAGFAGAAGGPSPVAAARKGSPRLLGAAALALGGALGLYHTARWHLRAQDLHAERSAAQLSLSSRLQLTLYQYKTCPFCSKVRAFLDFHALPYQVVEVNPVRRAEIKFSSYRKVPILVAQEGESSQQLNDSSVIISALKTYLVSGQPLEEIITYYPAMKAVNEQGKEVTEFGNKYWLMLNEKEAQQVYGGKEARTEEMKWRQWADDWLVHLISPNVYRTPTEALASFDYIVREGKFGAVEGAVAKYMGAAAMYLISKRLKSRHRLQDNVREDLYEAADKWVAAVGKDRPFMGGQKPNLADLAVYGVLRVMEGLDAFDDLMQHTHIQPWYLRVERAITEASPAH
The conditions noted are these: captured protein PTGES2; HeLa.

Experiment [3] deals with T3, HeLa cell extract proteins (Homo sapiens, UniProt Q09666).
T3 construct: endogenous in cells; host or cells: HeLa cell extract
To be noted: HeLa; protein AHNAK.

In experiment [4] the target is T4, HeLa cell extract proteins (Homo sapiens, UniProt P52298).
T4 construct: endogenous in cells; host or cells: HeLa cell extract
T4 sequence (P52298 1-156): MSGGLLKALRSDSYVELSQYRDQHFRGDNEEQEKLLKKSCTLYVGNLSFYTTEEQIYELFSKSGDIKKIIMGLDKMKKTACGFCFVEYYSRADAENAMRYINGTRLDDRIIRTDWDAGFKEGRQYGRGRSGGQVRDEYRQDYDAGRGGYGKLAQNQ

The target of experiment [5] is T5, HeLa cell extract proteins (Homo sapiens, UniProt Q15393).
T5 construct: endogenous in cells; host or cells: HeLa cell extract
T5 sequence (Q15393 whole entry): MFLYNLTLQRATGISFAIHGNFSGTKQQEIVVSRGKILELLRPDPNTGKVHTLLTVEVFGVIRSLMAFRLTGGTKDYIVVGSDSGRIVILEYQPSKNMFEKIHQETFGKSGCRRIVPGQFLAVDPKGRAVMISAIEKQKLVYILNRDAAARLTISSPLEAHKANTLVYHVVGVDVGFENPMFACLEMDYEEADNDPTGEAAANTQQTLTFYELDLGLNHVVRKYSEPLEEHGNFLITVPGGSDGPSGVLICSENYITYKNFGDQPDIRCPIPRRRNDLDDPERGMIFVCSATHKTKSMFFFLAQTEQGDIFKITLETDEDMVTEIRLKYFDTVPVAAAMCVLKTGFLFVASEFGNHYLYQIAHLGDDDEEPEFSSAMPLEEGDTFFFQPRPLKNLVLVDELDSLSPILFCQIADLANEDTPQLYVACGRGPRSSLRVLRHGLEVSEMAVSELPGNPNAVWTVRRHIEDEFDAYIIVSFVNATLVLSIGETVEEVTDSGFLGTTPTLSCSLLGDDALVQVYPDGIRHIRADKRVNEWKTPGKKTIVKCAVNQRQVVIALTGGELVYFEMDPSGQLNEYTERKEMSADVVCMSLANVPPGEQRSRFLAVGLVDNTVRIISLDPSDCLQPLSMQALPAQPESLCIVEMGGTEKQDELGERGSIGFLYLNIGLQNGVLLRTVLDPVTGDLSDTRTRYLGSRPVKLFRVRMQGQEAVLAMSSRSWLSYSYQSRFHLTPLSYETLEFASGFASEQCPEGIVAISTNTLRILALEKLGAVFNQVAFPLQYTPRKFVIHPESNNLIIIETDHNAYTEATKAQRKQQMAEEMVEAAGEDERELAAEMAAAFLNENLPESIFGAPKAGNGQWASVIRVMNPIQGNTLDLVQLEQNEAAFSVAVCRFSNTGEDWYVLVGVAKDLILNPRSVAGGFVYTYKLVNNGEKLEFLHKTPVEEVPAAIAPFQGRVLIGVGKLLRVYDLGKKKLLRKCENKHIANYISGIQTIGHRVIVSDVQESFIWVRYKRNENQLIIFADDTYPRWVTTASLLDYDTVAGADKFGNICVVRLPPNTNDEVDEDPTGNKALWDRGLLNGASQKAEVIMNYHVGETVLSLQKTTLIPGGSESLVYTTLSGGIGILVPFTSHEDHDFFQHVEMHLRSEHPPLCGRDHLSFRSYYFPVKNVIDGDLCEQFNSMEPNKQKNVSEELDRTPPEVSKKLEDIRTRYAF

The target in experiment [6] is T6, HeLa cell extract proteins (Homo sapiens, UniProt Q13535).
T6 construct: endogenous in cells; host or cells: HeLa cell extract
T6 sequence (Q13535 whole entry): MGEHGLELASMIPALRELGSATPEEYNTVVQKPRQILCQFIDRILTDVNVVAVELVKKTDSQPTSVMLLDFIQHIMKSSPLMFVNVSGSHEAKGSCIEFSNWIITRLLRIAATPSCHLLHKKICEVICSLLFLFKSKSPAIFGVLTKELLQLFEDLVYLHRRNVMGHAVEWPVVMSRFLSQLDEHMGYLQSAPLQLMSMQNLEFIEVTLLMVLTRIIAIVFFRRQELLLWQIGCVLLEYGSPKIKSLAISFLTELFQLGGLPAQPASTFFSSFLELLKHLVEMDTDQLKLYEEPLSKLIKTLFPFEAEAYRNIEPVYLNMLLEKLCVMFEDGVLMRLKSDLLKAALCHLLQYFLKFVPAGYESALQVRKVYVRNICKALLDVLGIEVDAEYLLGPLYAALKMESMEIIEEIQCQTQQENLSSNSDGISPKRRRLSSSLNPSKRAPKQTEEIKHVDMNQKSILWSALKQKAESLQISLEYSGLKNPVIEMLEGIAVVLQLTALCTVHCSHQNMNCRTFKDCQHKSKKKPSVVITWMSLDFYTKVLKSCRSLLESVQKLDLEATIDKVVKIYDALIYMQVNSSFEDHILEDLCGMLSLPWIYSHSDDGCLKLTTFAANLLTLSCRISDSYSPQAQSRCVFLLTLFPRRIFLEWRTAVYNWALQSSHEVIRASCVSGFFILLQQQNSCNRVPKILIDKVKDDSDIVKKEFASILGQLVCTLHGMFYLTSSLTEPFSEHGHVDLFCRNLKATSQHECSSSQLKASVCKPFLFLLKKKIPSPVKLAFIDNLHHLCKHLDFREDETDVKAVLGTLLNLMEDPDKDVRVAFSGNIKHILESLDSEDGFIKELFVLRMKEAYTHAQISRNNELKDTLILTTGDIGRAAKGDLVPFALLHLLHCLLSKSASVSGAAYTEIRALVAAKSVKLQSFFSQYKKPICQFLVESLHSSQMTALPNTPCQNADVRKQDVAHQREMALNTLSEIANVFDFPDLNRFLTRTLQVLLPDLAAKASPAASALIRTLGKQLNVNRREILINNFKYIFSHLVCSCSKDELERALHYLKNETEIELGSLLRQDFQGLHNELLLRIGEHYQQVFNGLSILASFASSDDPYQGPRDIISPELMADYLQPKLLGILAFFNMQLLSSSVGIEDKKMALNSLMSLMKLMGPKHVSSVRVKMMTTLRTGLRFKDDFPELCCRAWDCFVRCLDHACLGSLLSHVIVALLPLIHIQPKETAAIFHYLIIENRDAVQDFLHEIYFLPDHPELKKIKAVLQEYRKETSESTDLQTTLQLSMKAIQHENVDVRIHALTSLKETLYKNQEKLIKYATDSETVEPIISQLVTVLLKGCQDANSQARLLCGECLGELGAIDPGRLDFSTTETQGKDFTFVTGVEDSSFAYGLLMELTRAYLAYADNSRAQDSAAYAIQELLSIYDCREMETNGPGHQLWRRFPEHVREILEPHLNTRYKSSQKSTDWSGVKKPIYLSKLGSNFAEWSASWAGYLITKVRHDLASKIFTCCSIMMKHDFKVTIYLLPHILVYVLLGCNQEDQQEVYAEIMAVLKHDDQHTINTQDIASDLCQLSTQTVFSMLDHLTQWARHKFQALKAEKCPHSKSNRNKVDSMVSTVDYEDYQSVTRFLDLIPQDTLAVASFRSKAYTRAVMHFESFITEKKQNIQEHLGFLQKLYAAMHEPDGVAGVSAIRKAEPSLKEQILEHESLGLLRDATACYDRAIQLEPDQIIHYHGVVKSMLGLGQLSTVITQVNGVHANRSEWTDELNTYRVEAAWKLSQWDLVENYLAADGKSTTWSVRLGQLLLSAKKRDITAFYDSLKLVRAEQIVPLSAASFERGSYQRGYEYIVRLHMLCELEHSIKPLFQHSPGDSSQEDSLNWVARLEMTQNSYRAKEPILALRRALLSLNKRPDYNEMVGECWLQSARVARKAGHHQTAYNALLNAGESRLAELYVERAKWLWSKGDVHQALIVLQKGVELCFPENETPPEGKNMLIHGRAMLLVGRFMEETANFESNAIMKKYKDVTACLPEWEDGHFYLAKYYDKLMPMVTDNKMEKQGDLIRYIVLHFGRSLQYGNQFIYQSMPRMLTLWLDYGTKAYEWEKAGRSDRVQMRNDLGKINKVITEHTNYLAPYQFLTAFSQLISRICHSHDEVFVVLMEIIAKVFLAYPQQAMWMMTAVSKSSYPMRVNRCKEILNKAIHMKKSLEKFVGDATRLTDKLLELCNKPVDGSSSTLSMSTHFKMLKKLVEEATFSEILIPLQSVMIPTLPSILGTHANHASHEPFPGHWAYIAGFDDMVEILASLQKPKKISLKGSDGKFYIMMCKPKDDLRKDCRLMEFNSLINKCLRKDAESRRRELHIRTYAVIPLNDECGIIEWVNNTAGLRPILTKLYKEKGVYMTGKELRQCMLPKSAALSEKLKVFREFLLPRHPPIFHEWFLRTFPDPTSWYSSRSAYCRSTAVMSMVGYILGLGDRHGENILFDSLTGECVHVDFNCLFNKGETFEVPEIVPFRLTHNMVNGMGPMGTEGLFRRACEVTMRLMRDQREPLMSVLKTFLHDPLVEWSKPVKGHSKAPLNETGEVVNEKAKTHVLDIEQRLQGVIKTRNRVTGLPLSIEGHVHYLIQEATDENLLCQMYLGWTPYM

Experiment [7] addresses T7, HeLa cell extract proteins (Homo sapiens, UniProt Q96QU8).
T7 construct: endogenous in cells; host or cells: HeLa cell extract
T7 sequence (Q96QU8 1-1125): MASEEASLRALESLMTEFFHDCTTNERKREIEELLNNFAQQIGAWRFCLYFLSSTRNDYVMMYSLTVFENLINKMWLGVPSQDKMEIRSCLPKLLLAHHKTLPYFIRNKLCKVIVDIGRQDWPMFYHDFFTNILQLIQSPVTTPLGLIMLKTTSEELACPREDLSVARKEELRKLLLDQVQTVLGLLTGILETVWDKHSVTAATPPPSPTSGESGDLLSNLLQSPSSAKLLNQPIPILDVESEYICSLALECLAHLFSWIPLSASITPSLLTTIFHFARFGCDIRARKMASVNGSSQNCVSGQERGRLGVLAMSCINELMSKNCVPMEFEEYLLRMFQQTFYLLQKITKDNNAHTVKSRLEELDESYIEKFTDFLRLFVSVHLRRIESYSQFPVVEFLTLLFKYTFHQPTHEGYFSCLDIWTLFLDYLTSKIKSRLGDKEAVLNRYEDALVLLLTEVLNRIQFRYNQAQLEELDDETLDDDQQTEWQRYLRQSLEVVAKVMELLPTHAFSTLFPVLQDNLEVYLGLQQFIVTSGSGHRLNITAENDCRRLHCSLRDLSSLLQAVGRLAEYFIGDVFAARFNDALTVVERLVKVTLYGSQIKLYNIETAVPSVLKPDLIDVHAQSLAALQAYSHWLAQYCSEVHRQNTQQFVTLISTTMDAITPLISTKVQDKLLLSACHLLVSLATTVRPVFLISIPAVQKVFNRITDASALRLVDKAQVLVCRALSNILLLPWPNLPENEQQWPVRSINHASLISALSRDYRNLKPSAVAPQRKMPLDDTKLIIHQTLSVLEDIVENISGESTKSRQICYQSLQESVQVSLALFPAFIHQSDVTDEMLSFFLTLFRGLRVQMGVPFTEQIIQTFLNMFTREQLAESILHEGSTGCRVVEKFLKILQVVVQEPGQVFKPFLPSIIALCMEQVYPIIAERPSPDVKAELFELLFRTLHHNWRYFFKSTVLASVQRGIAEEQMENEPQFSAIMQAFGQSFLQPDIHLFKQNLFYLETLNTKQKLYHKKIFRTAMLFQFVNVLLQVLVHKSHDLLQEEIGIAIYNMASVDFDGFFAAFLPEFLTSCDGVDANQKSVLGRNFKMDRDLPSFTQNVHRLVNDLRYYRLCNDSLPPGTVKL

The target in experiment [8] is T8, HeLa cell extract proteins (Homo sapiens, UniProt P18074).
T8 construct: endogenous in cells; host or cells: HeLa cell extract
T8 sequence (P18074 1-760): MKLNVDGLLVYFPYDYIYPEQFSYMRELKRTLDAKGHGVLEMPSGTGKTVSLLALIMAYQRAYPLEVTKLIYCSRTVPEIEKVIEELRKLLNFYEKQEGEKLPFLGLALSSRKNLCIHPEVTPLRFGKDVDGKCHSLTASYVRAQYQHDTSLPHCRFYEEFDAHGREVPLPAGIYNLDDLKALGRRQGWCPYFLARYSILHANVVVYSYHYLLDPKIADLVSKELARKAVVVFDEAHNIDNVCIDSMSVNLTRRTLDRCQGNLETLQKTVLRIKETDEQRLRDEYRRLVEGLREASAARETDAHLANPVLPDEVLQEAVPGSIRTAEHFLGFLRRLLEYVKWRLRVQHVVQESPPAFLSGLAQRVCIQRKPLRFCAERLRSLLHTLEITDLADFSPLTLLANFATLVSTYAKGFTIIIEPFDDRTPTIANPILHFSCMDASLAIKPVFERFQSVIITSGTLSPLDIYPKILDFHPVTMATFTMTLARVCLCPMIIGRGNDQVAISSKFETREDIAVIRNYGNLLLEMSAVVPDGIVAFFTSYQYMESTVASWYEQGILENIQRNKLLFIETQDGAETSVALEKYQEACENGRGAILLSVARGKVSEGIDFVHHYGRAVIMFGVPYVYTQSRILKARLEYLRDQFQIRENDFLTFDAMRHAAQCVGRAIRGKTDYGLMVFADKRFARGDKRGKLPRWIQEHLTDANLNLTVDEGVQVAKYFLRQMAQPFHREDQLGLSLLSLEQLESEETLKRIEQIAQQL

[9] abbreviates: HeLa, protein NCBP2 (NUCLEAR CAP-BINDING PROTEIN SUBUNIT 2).

For the molecule `Nc1nc2cccc(-c3ccccc3)c2n1Cc1ccc(Cl)c(Cl)c1` [compound 3], the “fold changes relative to vehicle control” value in experiment [1] is 0.89; in experiment [2], 0.84; in experiment [3] it was 0.86.

For the molecule `NCCOCCOCC(=O)Nc1nc2ncc(CNc3ccc(C(=O)NC(CCC(=O)O)C(=O)O)cc3)nc2c(=O)[nH]1` (centres unmarked) [compound 6], the “fold changes relative to vehicle control” value in experiment [4] (setting [9]) is listed as 0.91; in experiment [5] (HeLa, protein SF3B3), 1.18; in experiment [6] (protein ATR, HeLa), 0.69; in experiment [7] (HeLa, protein XPO6), 1.09; in experiment [8] (HeLa, captured protein ERCC2) it was 0.98.

With `Nc1nc2[nH]cc(CCc3ccc(C(=O)N[C@@H](CCC(=O)O)C(=O)O)cc3)c2c(=O)[nH]1` [PTX, pemetrexed], the “fold changes relative to vehicle control” value came out at 0.91 in experiment [4]; 1.16 in experiment [5]; 0.79 in experiment [6]; 0.98 in experiment [7]; 0.98 in experiment [8].

On to `Nc1nc2c(c(=O)[nH]1)N(C=O)C(CNc1ccc(C(=O)N[C@@H](CCC(=O)O)C(=O)O)cc1)CN2` (some centres unmarked) [LEU, leucovorin], for which the “fold changes relative to vehicle control” value in experiment [4] (setting [9]) came to 1.05; in experiment [5] (HeLa, protein SF3B3), 1.09; in experiment [6] (protein ATR, HeLa) it was 0.66; in experiment [7] (HeLa, protein XPO6), 0.99; in experiment [8] (HeLa, captured protein ERCC2) it was 1.14.

Regarding `CCCCCCOc1ccc(Cc2cnc(N)nc2N)cc1` [compound 1], the “fold changes relative to vehicle control” value in experiment [1] is 0.97; in experiment [2] it was 0.87; in experiment [3], 0.88.

With `NCCCNc1ccc(C(=O)NC(CCC(=O)O)C(=O)O)cc1` (centres unmarked) [compound 7], the “fold changes relative to vehicle control” value in experiment [4] (setting [9]) worked out at 0.95; in experiment [5] (HeLa, protein SF3B3), 1.19; in experiment [6] (protein ATR, HeLa), 0.54; in experiment [7] (HeLa, protein XPO6), 1.08; in experiment [8] (HeLa, captured protein ERCC2), 1.

`CCCCCCOc1cccc(Cc2cnc(N)nc2N)c1` [compound 2]: the “fold changes relative to vehicle control” value stood at 0.71 in experiment [1], 1.18 in experiment [2] and 1.1 in experiment [3].
